In patent US5274121A, “N-methyl-N-[4-(1-pyrrolidinyl)-2-butynyl]amide congeners as muscarinic agents” (priority 1992, dated 1993):
“Also recorded” adds a separate entry of the source. Like-named read-outs stand apart in the source and are kept apart here.

Key:
[1] = molecular target: T1, muscarinic receptors, SK-N-SH cell membranes (m4 AChR) (Homo sapiens, UniProt P20309); test: Inhibition of [3H]-NMS binding to membranes from SK-N-SH cells; details: SK-N-SH cells; conc. of compounds = 100 μM
T1 construct: membranes from SK-N-SH cells; endogenous in cells; host or cells: SK-N-SH human neuroblastoma cells (crude membrane fraction)
T1 sequence (P20309 whole entry): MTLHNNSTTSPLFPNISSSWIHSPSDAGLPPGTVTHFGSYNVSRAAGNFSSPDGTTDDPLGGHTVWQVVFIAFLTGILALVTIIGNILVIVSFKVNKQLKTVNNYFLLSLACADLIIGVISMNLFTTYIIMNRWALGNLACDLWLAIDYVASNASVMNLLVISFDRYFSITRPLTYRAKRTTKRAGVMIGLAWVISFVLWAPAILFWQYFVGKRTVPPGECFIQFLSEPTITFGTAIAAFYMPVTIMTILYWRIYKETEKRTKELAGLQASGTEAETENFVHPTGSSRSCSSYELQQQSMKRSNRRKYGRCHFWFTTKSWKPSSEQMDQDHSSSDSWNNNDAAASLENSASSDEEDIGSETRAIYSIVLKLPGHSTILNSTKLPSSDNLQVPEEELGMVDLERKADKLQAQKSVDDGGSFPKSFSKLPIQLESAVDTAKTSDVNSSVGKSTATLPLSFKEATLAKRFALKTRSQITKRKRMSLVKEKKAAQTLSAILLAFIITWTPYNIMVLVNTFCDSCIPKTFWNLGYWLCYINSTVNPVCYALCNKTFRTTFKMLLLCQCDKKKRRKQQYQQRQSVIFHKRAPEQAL
From the text: (§1) Compounds of the present invention were screened for their biological activity. Assay systems using SK-N-SH human neuroblastoma cells which express only m4 -AChRs coupled to PI turnover, and NG108-15 neuroblastoma x glioma cells which express only m3 AChRs coupled to adenylate cyclase inhibition were used.
(§2) Compounds of the present invention were also screened for their relative binding affinities. Assay systems which measured the inhibition of ^3 H-N-methylscopolamine (^3 H-NMS) binding to membranes from NG108-15 cells and membranes from SK-N-SH cells were used.
(§3) Inhibition of [^3 H]-NMS binding
(§4) Cells were grown to confluence, harvested, and a crude membrane fraction was obtained. […] The total volume was 1 mL. The incubation was terminated by rapid filtration over GF/B filters using a Brandel cell harvester. The filters were washed three times with ice-cold 0.9% NaCl, equilibrated in scintillation counting fluid and counted on a Beckman LS 5801 liquid scintillation counter at 47% efficiency. Non-specific binding was determined by coincubation with 1 μM atropine, and amounted to less than 15% of total counts. It was routinely subtracted from the total counts.

[2] = tested on: NG108-15 neuroblastoma x glioma cells (m3 AChR); test: Inhibition of PGE1-stimulated cAMP levels in NG108-15 cells; assay type: cell-based; details: for inhibition at 100 µM: relative to control with no compounds added, conc. of compounds = 100 μM, read-out: cAMP Inhib; for agonist selectivity, in words: NG108-15 (cAMP) versus SK-N-SH (PI turnover); for agonist activity, in words: Table I assays
Description: (§5) Compounds of the present invention were tested for their binding affinities and activation of second messengers in selective muscarinic cholinergic receptor systems. It is believed that m1 -, m4 -, and m5 AChRs couple exclusively to PI turnover, whereas m2 - and m3 -AChRs couple only to adenylate cyclase inhibition.
as §1
Inhibition of PGE1 -stimulated cAMP levels in NG108-15 cells
Cells were plated in 24-well plates and were grown to 90% confluence. The growth media was then replaced with a solution of 1 mM IBMX in DMEM-Hepes (0.5 mL per well) and the cells were incubated for 10 min at 37° C. Agonists were then added at a final concentration of 100 μM, along with PGE1 (final conc, 5 μM), and the cells were incubated for a further 15 min at 37° C. The reaction Was terminated by aspirating the solution and adding 0.5 mL of 0.1N HCl. In order to extract the cAMP from the cells, they were incubated in 0.1 N HCl for 30 min at room temperature. An aliquot (35 50 μL) was removed, lyophilized, and assayed for cAMP by radioimmunoassay.

[3] = molecular target: T2, muscarinic receptors, NG108-15 cell membranes (m3 AChR) (Mus musculus, UniProt P32211); test: Inhibition of [3H]-NMS binding to membranes from NG108-15 cells; details: for inhibition at 100 µM: NG108-15 cells, conc. of compounds = 100 μM; for binding to muscarinic receptors, in words: 3H-NMS binding, NG108-15 and SK-N-SH membranes
T2 construct: membranes from NG108-15 cells; endogenous in cells; host or cells: NG108-15 neuroblastoma x glioma hybrid cells (crude membrane fraction)
T2 sequence (P32211 1-479): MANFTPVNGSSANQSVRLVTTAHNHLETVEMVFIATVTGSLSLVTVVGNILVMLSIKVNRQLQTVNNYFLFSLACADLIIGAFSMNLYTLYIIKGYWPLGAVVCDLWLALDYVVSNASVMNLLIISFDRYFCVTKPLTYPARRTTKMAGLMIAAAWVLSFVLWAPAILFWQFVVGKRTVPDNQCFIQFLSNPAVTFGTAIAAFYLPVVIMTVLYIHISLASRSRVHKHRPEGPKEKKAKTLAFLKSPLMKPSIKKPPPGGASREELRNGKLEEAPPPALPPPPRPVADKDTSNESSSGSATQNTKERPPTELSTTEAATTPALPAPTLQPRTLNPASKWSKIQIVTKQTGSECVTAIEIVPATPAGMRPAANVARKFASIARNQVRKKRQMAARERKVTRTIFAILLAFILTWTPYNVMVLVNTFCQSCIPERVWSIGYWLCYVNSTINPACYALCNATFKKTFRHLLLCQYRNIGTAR
From the text: as §1, §2, §3, §4

[4] = tested on: SK-N-SH human neuroblastoma cells (m4 AChR); test: Stimulation of PI turnover in SK-N-SH cells; assay type: cell-based; details: SK-N-SH cells; for Emax at 100 µM: Homo sapiens, 0.5 h, percent relative to the activity of OXO-M, conc. of compounds = 100 μM, read-out: Pi turnover
Description: as §5, §1
Stimulation of PI turnover in SK-N-SH cells
Cells were plated into 24-well plates at 100,000 cells per well. After 24 hours, they were labeled overnight with 2 μCi per well of [^3 H]-myo-inositol (American Radiolabeled Chemicals, Inc., St. Louis, Mo.; 15 Ci/mM; 2 μL of stock per mL of media). The cells were then rinsed twice with 10 mM LiCl in DMEM-Hepes and the cells were incubated in this solution for 5 min at 37° C. The indicated compound was then added at a final concentration of 100 μM and the cells were incubated for another 30 min at 37° C. The reaction was stopped by aspirating the solution and adding cold methanol to the cells. After transferring the cells to a glass tube and sonicating briefly, chloroform and water were added to make a two-phase system. The upper aqueous phase was applied to 0.6 mL anion exchange columns (AG X8, Bio-Rad) and the columns were washed and total inositol phosphates were eluted with 1M ammonium formate and 0.1M formic acid.

| SMILES | inhibition at 100 µM [1] [%] | agonist activity in NG108-15 cells (cAMP inhibition), in words ([2]; NG108-15 cells) | inhibition at 100 µM ([2]; NG108-15 cells) [%] | inhibition at 100 µM [3] [%] | stimulation of PI turnover, in words [4] | agonist selectivity, in words [2] | inhibition at 100 µM ([2]; NG108-15, NG108-15 cells) [%] | Emax at 100 µM [4] [%] | agonist activity, in words [2] | binding to muscarinic receptors, in words [3] |
| --- | --- | --- | --- | --- | --- | --- | --- | --- | --- | --- |
| CN(CC#CCN1CCCC1)C(=O)CNC(=O)OC(C)(C)C [Compound 006, N-Methyl-N-[4-(1-pyrrolidinyl)-2-butynyl]-2-(N-Boc-amino) acetamide] | 40 ± 2.1 | substantial activity | 7 ± 2.9 | 32.6 ± 1.5 |  |  |  |  |  |  |
| CN(CC#CCN1CCCC1)C(=O)CN [Compound 007, N-Methyl-N-[4-(1-pyrrolidinyl)-2-butynyl]-2-aminoacetamide] | 17.3 ± 3.3 | most active as agonists in NG108-15 cells; also recorded: approximately half as active as the full agonist oxotremorine-M |  | 23.5 ± 4 | inactive in SK-N-SH cells | selective agonists | 26.1 ± 1.6 |  |  |  |
| CC(=O)NCC(=O)N(C)CC#CCN1CCCC1 [Compound 010, N-Methyl-N-[4-(1-pyrrolidinyl)-2-butynyl]-2-(N-acetylamino)acetamide] | 12.5 ± 2.8 | substantial activity |  | 24 ± 5.4 |  |  | 14.1 ± 2.3 | 8 ± 3 |  |  |
| CN(CC#CCN1CCCC1)C(=O)CCNC(=O)OC(C)(C)C [Compound 016] | 45.1 ± 2.5 | substantial activity | 12.5 ± 2.7 | 36.3 ± 3.1 |  |  |  |  |  |  |
| CN(CC#CCN1CCCC1)C(=O)CCN [Compound 017] | 18.1 ± 2.8 | most active as agonists in NG108-15 cells; also recorded: approximately half as active as the full agonist oxotremorine-M |  | 15.1 ± 3.5 | inactive in SK-N-SH cells | selective agonists | 20.8 ± 1.7 |  |  |  |
| CC(=O)NCCC(=O)N(C)CC#CCN1CCCC1 [Compound 018] | 67.4 ± 3.3 |  |  | 67.7 ± 3.6 |  |  | 10.2 ± 4.8 |  |  |  |
| CN(CC#CCN1CCCC1)C(=O)CCCNC(=O)OC(C)(C)C [Compound 020] | 32.1 ± 0.7 |  | 3.5 ± 1.7 | 24.4 ± 2.5 |  |  |  |  |  |  |
| CN(CC#CCN1CCCC1)C(=O)CCCN [Compound 021] | 20 ± 1.5 |  |  | 12.1 ± 2.2 |  |  | 3.7 ± 2 |  |  |  |
| CC(=O)NCCCC(=O)N(C)CC#CCN1CCCC1 [Compound 022] | 15.6 ± 1.6 | substantial activity |  | 19.1 ± 1.8 |  |  | 8 ± 3.7 | 14 ± 5 |  |  |
| CN(CC#CCN1CCCC1)C(=O)CCCCNC(=O)OC(C)(C)C [Compound 035] | 32.1 ± 2.1 |  | 0.5 ± 0.3 | 26.7 ± 1.6 |  |  |  | 1 ± 1 |  |  |
| CN(CC#CCN1CCCC1)C(=O)CCCCN [Compound 036] | 34.4 ± 0.3 | substantial activity |  | 22.4 ± 3.2 |  |  | 15.8 ± 2.7 |  |  |  |
| CN(CC#CCN1CCCC1)C(=O)CCCCCNC(=O)OC(C)(C)C [Compound 038] | 39.1 ± 2.4 |  | 0 | 31.9 ± 0.9 |  |  |  |  |  |  |
| CN(CC#CCN1CCCC1)C(=O)CCCCCN [Compound 039] | 55.6 ± 1.9 | substantial activity |  | 37.9 ± 3.2 |  |  | 14.3 ± 1 |  |  |  |
| CC(=O)NCCCCC(=O)N(C)CC#CCN1CCCC1 [Compound 040] | 29.4 ± 1 |  | 5.2 ± 2.2 | 17.9 ± 7.9 |  |  |  |  |  |  |
| CC(=O)NCCCCCC(=O)N(C)CC#CCN1CCCC1 [Compound 041] | 17.4 ± 3.6 |  | 3 ± 1.7 | 22.7 ± 2.8 |  |  |  | 1 ± 1 |  |  |
| CN(CC#CCN1CCCC1)C(=O)CCCCCCCNC(=O)OC(C)(C)C [Compound 043] | 92.1 ± 1 |  | 0 | 89 ± 2.5 |  |  |  |  | inactive as agonists | most active |
| CN(CC#CCN1CCCC1)C(=O)CCCCCCNC(=O)OC(C)(C)C [Compound 045] | 81.4 ± 2.4 |  | 0 | 77.9 ± 2.4 |  |  |  |  | inactive as agonists | most active |
| CN(CC#CCN1CCCC1)C(=O)CCCCCCCN [Compound 046] | 93.7 ± 1.8 |  | 0 | 92.3 ± 3.2 |  |  |  |  | inactive as agonists | most active |
| CN(CC#CCN1CCCC1)C(=O)CCCCCCN [Compound 047] | 81.9 ± 1 |  |  | 72.1 ± 2.7 |  |  | 3 ± 1.2 |  | inactive as agonists | most active |
| CC(=O)NCCCCCCCC(=O)N(C)CC#CCN1CCCC1 [Compound 048] | 59.1 ± 0.8 |  | 0 | 50.4 ± 4.9 |  |  |  |  |  |  |
| CC(=O)NCCCCCCC(=O)N(C)CC#CCN1CCCC1 [Compound 049] | 24.6 ± 3.1 |  | 6.9 ± 2.9 | 20.4 ± 5.5 |  |  |  |  |  |  |
| CN(CC#CCN1CCCC1)C(=O)CCCCCNC(=O)CNC(=O)OC(C)(C)C [Compound 050] | 50 |  | 0 | 51 |  |  |  |  |  |  |
| CN(CC#CCN1CCCC1)C(=O)CCCCCNC(=O)CCNC(=O)OC(C)(C)C [Compound 051] | 60 |  | 0 | 51 |  |  |  |  |  |  |
| CN(CC#CCN1CCCC1)C(=O)CCCNC(=O)CNC(=O)OC(C)(C)C [Compound 052, N-Methyl-N-[4-(1-pyrrolidinyl)-2-butynyl]-5-(N-[2-(N-Boc-amino)ethanoyl]amino)butanamide] | 40 |  | 0 | 5 |  |  |  |  |  |  |
| CN(CC#CCN1CCCC1)C(=O)CCCNC(=O)CCNC(=O)OC(C)(C)C [Compound 053] | 40 |  | 0 | 23 |  |  |  |  |  |  |
| CN(CC#CCN1CCCC1)C(=O)CCCCCNC(=O)c1ccccc1 [Compound 054] | 49 |  | 0 | 35 |  |  |  |  |  |  |
| CN(CC#CCN1CCCC1)C(=O)CCCNC(=O)c1ccccc1 [Compound 055] | 27 |  | 0 | 16 |  |  |  |  |  |  |
